30 compounds from US20240158412A1 (Faxian Therapeutics, LLC, priority 2021, published 2024) can be followed below.
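Further: fluorescence intensity readout of USP7 enzymatic activity, reaction incubated 90 min at room temperature.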

The target of the assay is USP7 (Homo sapiens, UniProt Q93009). In words: biochemical.
Chain of USP7 (Q93009 whole entry): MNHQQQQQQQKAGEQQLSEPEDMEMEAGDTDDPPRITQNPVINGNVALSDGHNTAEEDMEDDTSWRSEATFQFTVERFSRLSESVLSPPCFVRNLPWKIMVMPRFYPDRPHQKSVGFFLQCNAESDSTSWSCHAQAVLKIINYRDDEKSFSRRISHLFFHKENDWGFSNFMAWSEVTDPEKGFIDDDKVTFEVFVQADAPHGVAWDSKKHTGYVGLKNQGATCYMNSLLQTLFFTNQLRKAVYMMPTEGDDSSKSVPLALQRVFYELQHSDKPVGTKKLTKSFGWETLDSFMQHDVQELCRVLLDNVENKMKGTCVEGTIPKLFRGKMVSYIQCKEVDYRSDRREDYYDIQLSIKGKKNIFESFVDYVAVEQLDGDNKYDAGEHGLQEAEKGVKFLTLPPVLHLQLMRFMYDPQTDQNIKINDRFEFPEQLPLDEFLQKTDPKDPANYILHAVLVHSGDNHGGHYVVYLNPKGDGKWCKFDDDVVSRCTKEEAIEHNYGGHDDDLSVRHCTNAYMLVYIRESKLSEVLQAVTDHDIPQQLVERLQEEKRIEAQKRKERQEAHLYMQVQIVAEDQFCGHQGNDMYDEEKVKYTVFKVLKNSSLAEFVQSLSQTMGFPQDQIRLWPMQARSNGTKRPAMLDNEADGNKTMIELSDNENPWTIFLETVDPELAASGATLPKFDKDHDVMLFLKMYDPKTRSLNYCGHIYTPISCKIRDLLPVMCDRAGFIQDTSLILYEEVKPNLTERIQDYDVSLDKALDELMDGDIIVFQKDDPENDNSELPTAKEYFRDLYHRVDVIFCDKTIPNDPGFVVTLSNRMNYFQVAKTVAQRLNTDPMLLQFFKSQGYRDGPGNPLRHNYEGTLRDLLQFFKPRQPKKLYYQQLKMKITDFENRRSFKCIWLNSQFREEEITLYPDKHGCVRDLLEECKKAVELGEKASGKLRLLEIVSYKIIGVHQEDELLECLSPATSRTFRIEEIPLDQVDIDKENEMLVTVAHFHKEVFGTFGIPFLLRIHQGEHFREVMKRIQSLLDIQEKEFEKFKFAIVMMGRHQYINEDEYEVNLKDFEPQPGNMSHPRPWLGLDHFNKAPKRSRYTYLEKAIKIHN
Method: Example A. Biochemical Assay of USP7 Inhibitor Potency (IC50)
Fluorescence intensity assay of USP7 activity in the presence USP7 inhibitors. Recombinant USP7 protein (catalogue number E-519) and the fluorescence substrate ubiquitin-rhodamine 110 (Rh110) (catalogue number U-555) were purchased from Boston Biochem (840 Memorial Drive, Cambridge, MA 02139). The reaction was carried out in buffer 20 mM HEPES, pH 7.3, 150 mM NaCl, 1 mM TCEP, 125 μg/mL BSA at room temperature in a black 384-well Microplate (Greiner, catalog number 781076).
Test compounds were dissolved in DMSO to make 50 mM stock solution. […] In wells of a black 384-well Microplate, 15 μl of 100 pM of USP7 enzyme was added to each well with pre-diluted compounds and incubated at room temperature for 30 minutes, followed by addition of 10 μl of ubiquitin-rhodamine 110 (Rh110) substrate to reach 160 nM final concentration. The reaction mixtures were incubated for additional 90 minutes at room temperature. The fluorescence signal of the digested substrate was measured on an EnVision microplate reader (PerkinElmer,), using excitation at 485 nm and emission at 535 nm. The IC50 values were calculated using XLfit software.
By IC50 is commonly meant the point on the concentration scale where inhibition reaches its midpoint. `O=C1CNCC(=O)N1Cc1cc2nccc(-c3cc(Cl)cc4c3N(C3CNC3)CCC4)c2s1` [Example 28, 1-[[7-[1-(azetidin-3-yl)-6-chloro-3,4-dihydro-2H-quinolin-8-yl]thieno[3,2-b]pyridin-2-yl]methyl]piperazine-2,6-dione]: the 50% inhibitory concentration (IC50) is below 0.01 µM. The value for `O=c1ccn(CC2(C(F)F)CC2)c(=O)n1Cc1cc2nccc(-c3cc(Cl)cc4c3N([C@H]3CCNC3)CCC4)c2s1` [Example 69, (S)-3-((7-(6-chloro-1-(pyrrolidin-3-yl)-1,2,3,4-tetrahydroquinolin-8-yl)thieno[3,2-b]pyridin-2-yl)methyl)-1-((1-(difluoromethyl)cyclopropyl)methyl)pyrimidine-2,4(1H,3H)-dione] was below 0.01 µM; that for `Cc1cnn(Cc2cc3nccc(-c4cc(C#N)cc5c4N(C4CNC6(CCC6)C4)CCC5)c3s2)c(=O)c1` (single isomer, unassigned) [Example 164a] was below 0.01 µM; that for `O=C1C2CC2C(=O)N1Cc1cc2nccc(-c3cc(Cl)cc4c3N([C@@H]3CNC(CO)(CO)C3)CCO4)c2s1` (single isomer, unassigned) [Example 212b] was 0.01 to 0.1 µM. To `C[C@@]1(C(=O)O)C[C@H](N2CCCc3cc(Cl)cc(-c4ccnc5cc(CN6C(=O)CCC6=O)sc45)c32)CN1` [Example 205, (2S,4S)-4-(6-chloro-8-(2-((2,5-dioxopyrrolidin-1-yl)methyl)thieno[3,2-b]pyridin-7-yl)-3,4-dihydroquinolin-1(2H)-yl)-2-methylpyrrolidine-2-carboxylic acid] belongs below 0.01 µM. The value for `O=c1ccn(CC2CC2)c(=O)n1Cc1cc2nccc(-c3cc(Cl)cc4c3N([C@H]3CCNC3)CCC4)c2s1` [Example 62, (S)-3-((7-(6-chloro-1-(pyrrolidin-3-yl)-1,2,3,4-tetrahydroquinolin-8-yl)thieno[3,2-b]pyridin-2-yl)methyl)-1-(cyclopropylmethyl)pyrimidine-2,4(1H,3H)-dione] was below 0.01 µM; that for `CO[C@H]1CNC[C@@H]1N1CCCc2cc(Cl)cc(-c3ccnc4cc(CN5C(=O)CCC5=O)sc34)c21` (single isomer, unassigned) [Example 97a] was 0.101 to 1 µM. Turning to `CC(C)(C)c1cnn(Cc2cc3nccc(-c4cc(C#N)cc5c4N([C@@H]4CN[C@@H](CO)C4)CCC5)c3s2)c(=O)c1` [Example 190, 8-[2-[(4-tert-butyl-6-oxo-pyridazin-1-yl)methyl]thieno[3,2-b]pyridin-7-yl]-1-[(3S,5R)-5-(hydroxymethyl)pyrrolidin-3-yl]-3,4-dihydro-2H-quinoline-6-carbonitrile], the IC50 is below 0.01 µM. With `Cc1cc(-c2cc(Cl)cc3c2N([C@H]2CCNC2)CCC3)c2sc(CN3C(=O)CCC3=O)cc2n1` [Example 116, (S)-1-((7-(6-chloro-1-(pyrrolidin-3-yl)-1,2,3,4-tetrahydroquinolin-8-yl)-5-methylthieno[3,2-b]pyridin-2-yl)methyl)pyrrolidine-2,5-dione], the IC50 lay within 0.101 to 1 µM. To `CN1CC(=O)N(Cc2cc3nccc(-c4cc(Cl)cc5c4N([C@@H]4CNC6(CCC6)C4)CCC5)c3s2)C1=O` [Example 150, (S)-3-((7-(6-chloro-1-(5-azaspiro[3.4]octan-7-yl)-1,2,3,4-tetrahydroquinolin-8-yl)thieno[3,2-b]pyridin-2-yl)methyl)-1-methylimidazolidine-2,4-dione] belongs below 0.01 µM; to `CN1CC(N2CCCc3cc(Cl)cc(-c4ccnc5cc(CN6C(=O)CCC6=O)sc45)c32)C1` [Example 2, 1-((7-(6-chloro-1-(1-methylazetidin-3-yl)-1,2,3,4-tetrahydroquinolin-8-yl)thieno[3,2-b]pyridin-2-yl)methyl)pyrrolidine-2,5-dione], 0.01 to 0.1 µM; to `O=c1ccn(C[C@@H](O)C(F)(F)F)c(=O)n1Cc1cc2nccc(-c3cc(Cl)cc4c3N([C@H]3CCNC3)CCC4)c2s1` [Example 65, 3-((7-(6-chloro-1-((S)-pyrrolidin-3-yl)-1,2,3,4-tetrahydroquinolin-8-yl)thieno[3,2-b]pyridin-2-yl)methyl)-1-((R)-3,3,3-trifluoro-2-hydroxypropyl)pyrimidine-2,4(1H,3H)-dione], below 0.01 µM. The value for `O=c1ccn(CC(F)F)c(=O)n1Cc1cc2nccc(-c3cc(C(F)(F)F)cc4c3N([C@H]3CCNC3)CCC4)c2s1` [Example 81, (S)-1-(2,2-difluoroethyl)-3-((7-(1-(pyrrolidin-3-yl)-6-(trifluoromethyl)-1,2,3,4-tetrahydroquinolin-8-yl)thieno[3,2-b]pyridin-2-yl)methyl)pyrimidine-2,4(1H,3H)-dione] was below 0.01 µM; that for `O=c1ccn(CCC(F)F)c(=O)n1Cc1cc2nccc(-c3cc(Cl)cc4c3N([C@H]3CCNC3)CCC4)c2s1` [Example 67, (S)-3-((7-(6-chloro-1-(pyrrolidin-3-yl)-1,2,3,4-tetrahydroquinolin-8-yl)thieno[3,2-b]pyridin-2-yl)methyl)-1-(3,3-difluoropropyl)pyrimidine-2,4(1H,3H)-dione] was below 0.01 µM. The value for `O=C1CCC(=O)N1Cc1cc2nccc(-c3cc(Cl)cc4c3N(C3CC5(CNC5)C3)CCC4)c2s1` [Example 137, 1-[[7-[1-(2-azaspiro[3.3]heptan-6-yl)-6-chloro-3,4-dihydro-2H-quinolin-8-yl]thieno[3,2-b]pyridin-2-yl]methyl]pyrrolidine-2,5-dione] was 0.01 to 0.1 µM. On to `O=C1CCC(=O)N1Cc1cc2nccc(-c3cc(Cl)cc4c3C3(CCC4)CNCCO3)c2s1` (single isomer, unassigned) [Example 229a], for which the concentration for half-maximal inhibition (IC50) was in the range of 0.01 to 0.1 µM. To `CC1(c2cnn(Cc3cc4nccc(-c5cc(C#N)cc6c5N([C@@H]5CN[C@@H](CO)C5)C[C@@H]5C[C@H]65)c4s3)c(=O)c2)CC1` (single isomer, unassigned) [Example 195b] belongs below 0.01 µM; to `CC1(C)C[C@H](N2CCCc3cc(C#N)cc(-c4ccnc5cc(CN6C(=O)CCCC6=O)sc45)c32)CN1` [Example 130, (S)-1-(5,5-dimethylpyrrolidin-3-yl)-8-(2-((2,6-dioxopiperidin-1-yl)methyl)thieno[3,2-b]pyridin-7-yl)-1,2,3,4-tetrahydroquinoline-6-carbonitrile], below 0.01 µM. The value for `O=C1CCC(=O)N1Cc1cc2nccc(-c3cc(Cl)cc4c3N(C3CNC5(CCC5)C3)C(=O)CO4)c2s1` (single isomer, unassigned) [Example 173a] was 0.01 to 0.1 µM; that for `O=c1cc(CC(F)(F)F)cnn1Cc1cc2nccc(-c3cc(Cl)cc4c3N([C@@H]3CNC5(CCC5)C3)CCC4)c2s1` [Example 154, (S)-2-((7-(6-chloro-1-(5-azaspiro[3.4]octan-7-yl)-1,2,3,4-tetrahydroquinolin-8-yl)thieno[3,2-b]pyridin-2-yl)methyl)-5-(2,2,2-trifluoroethyl)pyridazin-3(2H)-one] was below 0.01 µM. `C[C@]1(CO)C[C@H](N2CCCc3cc(Cl)cc(-c4ccnc5cc(Cn6ncc(C7(C(F)(F)F)CC7)cc6=O)sc45)c32)CN1` [Example 207, 2-((7-(6-chloro-1-((3S,5R)-5-(hydroxymethyl)-5-methylpyrrolidin-3-yl)-1,2,3,4-tetrahydroquinolin-8-yl)thieno[3,2-b]pyridin-2-yl)methyl)-5-(1-(trifluoromethyl)cyclopropyl)pyridazin-3(2H)-one] gave a half-maximal inhibitory concentration (IC50) below 0.01 µM. `Cc1cc2c(c(-c3ccnc4cc(CN5C(=O)CCC5=O)sc34)c1)N(C1CNC1)CCC2` [Example 33, 1-[[7-[1-(azetidin-3-yl)-6-methyl-3,4-dihydro-2H-quinolin-8-yl]thieno[3,2-b]pyridin-2-yl]methyl]pyrrolidine-2,5-dione] displayed an IC50 of 0.01 to 0.1 µM.

`O=C1CCC(=O)N1Cc1cc2nccc(-c3cc(Cl)cc4c3N([C@@H]3CN(CCF)C5(CCC5)C3)CCC4)c2s1` [Example 142, (S)-1-((7-(6-chloro-1-(5-(2-fluoroethyl)-5-azaspiro[3.4]octan-7-yl)-1,2,3,4-tetrahydroquinolin-8-yl)thieno[3,2-b]pyridin-2-yl)methyl)pyrrolidine-2,5-dione] gave an IC50 below 0.01 µM. To `O=C1CCC(=O)N1Cc1cc2nccc(-c3cc(C(F)(F)F)cc4c3N([C@@H]3CCNC3)CCC4)c2s1` (single isomer, unassigned) [Example 78] belongs 0.01 to 0.1 µM. To `O=C1COC(=O)N1Cc1cc2nccc(-c3cc(Cl)cc4c3N([C@@H]3CNC5(CCC5)C3)CCC4)c2s1` [Example 151, (S)-3-((7-(6-chloro-1-(5-azaspiro[3.4]octan-7-yl)-1,2,3,4-tetrahydroquinolin-8-yl)thieno[3,2-b]pyridin-2-yl)methyl)oxazolidine-2,4-dione] belongs below 0.01 µM; to `O=C1CCC(=O)N1Cc1cc2nccc(-c3cccc4c3N([C@@H]3CCNC3)CCO4)c2s1` (single isomer, unassigned) [Example 111b], above 1 µM. To `N#Cc1cc(-c2ccnc3cc(Cn4c(=O)ccn(CC(F)F)c4=O)sc23)c2c(c1)[C@H]1C[C@H]1CN2[C@H]1CCNC1` [Example 117c, (1aR,7bS)-4-(2-((3-(2,2-difluoroethyl)-2,6-dioxo-3,6-dihydropyrimidin-1(2H)-yl)methyl)thieno[3,2-b]pyridin-7-yl)-3-((S)-pyrrolidin-3-yl)-1a,2,3,7b-tetrahydro-1H-cyclopropa[c]quinoline-6-carbonitrile] belongs 0.01 to 0.1 µM; to `CC(C)(C)c1cnn(Cc2cc3nccc(-c4cc(Cl)cc5c4N(C4CNC(CO)(CO)C4)CCO5)c3s2)c(=O)c1` (stereo in doubt) [Example 213a, (R)-2-((7-(4-(5,5-bis(hydroxymethyl)pyrrolidin-3-yl)-7-chloro-3,4-dihydro-2H-benzo[b][1,4]oxazin-5-yl)thieno[3,2-b]pyridin-2-yl)methyl)-5-(tert-butyl)pyridazin-3(2H)-one], 0.01 to 0.1 µM. As for `O=C1CCC(=O)N1Cc1cc2nccc(-c3cc(Cl)cc4c3N([C@@H]3CNC[C@H]3F)CCC4)c2s1` (single isomer, unassigned) [Example 96b], the half-maximal inhibitory concentration (IC50) fell in the range of 0.01 to 0.1 µM. To `N#Cc1cc(-c2ccnc3cc(CN4C(=O)CCC4=O)sc23)c2c(c1)[C@@H]1C[C@@H]1CN2[C@@H]1CNC2(CCC2)C1` [Example 168, (1aS,7bR)-4-(2-((2,5-dioxopyrrolidin-1-yl)methyl)thieno[3,2-b]pyridin-7-yl)-3-((S)-5-azaspiro[3.4]octan-7-yl)-1a,2,3,7b-tetrahydro-1H-cyclopropa[c]quinoline-6-carbonitrile] belongs below 0.01 µM.
